Results reported in ChEMBL document CHEMBL1156102, “Identification of iminooxothiazolidines as secreted frizzled related protein-1 inhibitors” (Bioorg Med Chem Lett, 2009).
Calls of active or inactive are those of the source. The rule behind the calls is not given here.

How the values were obtained:
[1] = target: T1, Secreted frizzled-related protein 1 (Homo sapiens) (UniProt Q8N474); assay: Inhibition of human SFRP1 transfected in human U20S cells at 15 uM by TCF-luciferase reporter gene assay relative to control; assay type: cell-based; conditions: U2OS
T1 sequence (whole entry): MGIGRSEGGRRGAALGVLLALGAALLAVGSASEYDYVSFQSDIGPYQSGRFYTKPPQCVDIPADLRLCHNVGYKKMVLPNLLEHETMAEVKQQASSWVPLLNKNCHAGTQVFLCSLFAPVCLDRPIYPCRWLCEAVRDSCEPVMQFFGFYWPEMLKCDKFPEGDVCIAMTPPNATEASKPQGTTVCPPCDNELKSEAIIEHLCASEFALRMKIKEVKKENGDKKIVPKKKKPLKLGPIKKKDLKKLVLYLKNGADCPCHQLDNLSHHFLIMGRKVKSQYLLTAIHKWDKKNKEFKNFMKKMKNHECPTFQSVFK

[2] = target: T1, Secreted frizzled-related protein 1 (Homo sapiens); assay: Inhibition of human SFRP1 transfected in human U20S cells at 30 uM by TCF-luciferase reporter gene assay relative to control; assay type: cell-based; conditions: U2OS
[3] = target: T2, Secreted frizzled-related protein 1 (Homo sapiens, UniProt Q8N474); assay: Inhibition of human SFRP1 transfected in human U20S cells by TCF-luciferase reporter gene assay; assay type: cell-based, U2OS
T2 sequence (Q8N474 whole entry): T1 sequence (whole entry)

[4] = target: Proto-oncogene Wnt-3 (Homo sapiens) (UniProt P56703); assay: Binding affinity to Wnt3
Chain of Proto-oncogene Wnt-3 (Homo sapiens) (P56703 whole entry): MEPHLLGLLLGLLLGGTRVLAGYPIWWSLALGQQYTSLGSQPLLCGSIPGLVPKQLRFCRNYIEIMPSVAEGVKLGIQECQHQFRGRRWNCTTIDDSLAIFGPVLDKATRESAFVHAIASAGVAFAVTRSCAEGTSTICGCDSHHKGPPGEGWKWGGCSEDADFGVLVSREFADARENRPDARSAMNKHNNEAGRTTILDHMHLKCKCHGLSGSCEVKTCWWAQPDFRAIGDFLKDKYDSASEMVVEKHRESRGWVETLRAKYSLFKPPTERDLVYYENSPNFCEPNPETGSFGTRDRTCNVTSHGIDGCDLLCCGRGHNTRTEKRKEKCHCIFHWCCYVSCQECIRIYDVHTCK

[5] = target: T2, Secreted frizzled-related protein 1; assay: Binding affinity to human SFRP1 by fluorescence spectroscopy
[6] = target: Secreted frizzled-related protein 1 (Homo sapiens) (UniProt Q8N474); assay: Inhibition of human SFRP1
Mus musculus [7] = organism: Mus musculus; assay: Ex vivo osteogenic activity in mouse calvaria assessed in increase in total bone area at 15 uM; assay type: functional
Mus musculus [8] = organism: Mus musculus; assay: Ex vivo osteogenic activity in mouse calvaria assessed in increase in osteoblasts number at 15 uM; assay type: functional

| Compound | fold change (FC) [1] | further results |
| --- | --- | --- |
| N=C1NC(=O)C(CC(=O)Nc2sc3c(c2C(N)=O)CCCC3)S1 (stereo unspecified) | 1.1 |  |
| CC/N=C1\NC(=O)C(CC(=O)Nc2sc(C)c(C)c2C(=O)OCC)S1 (stereo unspecified) | 1.2 |  |
| N#Cc1c(NC(=O)CC2SC(=N)NC2=O)sc2c1CCCC2 (stereo unspecified) | 1.2 |  |
| CCOC(=O)c1c(NC(=O)CC2SC(=N)NC2=O)sc2c1CCCCC2 (stereo unspecified) | 1.9 |  |
| N=C1NC(=O)C(CC(=O)Nc2cccc(Cl)c2)S1 (stereo unspecified) |  | fold change (FC) [2]: 1.7 |
| CCOC(=O)c1ccccc1NC(=O)CC1SC(=N)NC1=O (stereo unspecified) | 1.1 |  |
| CCOC(=O)c1c(NC(=O)CC2S/C(=N/C)N(C)C2=O)sc(C)c1C (stereo unspecified) | 1.2 |  |
| N=C1NC(=O)C(CC(=O)Nc2ccccc2)S1 (stereo unspecified) |  | fold change (FC) [2]: 1.1 |
| CCOC(=O)c1c(NC(=O)CC2SC(=N)NC2=O)sc2c1CCC2 (stereo unspecified) | 1.5 |  |
| CCOC(=O)c1c(NC(=O)CC2SC(=N)NC2=O)sc2c1CCCC2 (stereo unspecified) | 1.6 |  |
| CCOC(=O)c1c(NC(=O)CC2SC(=N)NC2=O)sc(Br)c1C (stereo unspecified) | 2.6 |  |
| COC(=O)c1c(NC(=O)CC2SC(=N)NC2=O)sc(C)c1C (stereo unspecified) | 1.9 | EC50 [3]: 7.2 µM; Activity [4]: Active; Kd [5]: 0.72 µM; Activity [6]: Active |
| CCOC(=O)c1c(NC(=O)CC2SC(=N)NC2=O)sc(C)c1-c1ccccc1 (stereo unspecified) | 1.8 |  |
| N=C1NC(=O)C(CC(=O)NCc2cccc(Cl)c2)S1 (stereo unspecified) |  | fold change (FC) [2]: 1 |
| CCOC(=O)c1c(NC(=O)CC2SC(=N)NC2=O)sc(-c2ccccc2)c1C (stereo unspecified) | 0.8 |  |
| COC(=O)c1cc(-c2ccccc2)sc1NC(=O)CC1SC(=N)NC1=O (stereo unspecified) | 0.9 |  |
| COC(=O)c1ccsc1NC(=O)CC1SC(=N)NC1=O (stereo unspecified) | 1.2 |  |
| CCOC(=O)c1cccc(NC(=O)CC2SC(=N)NC2=O)c1 (stereo unspecified) |  | fold change (FC) [2]: 1.5 |
| CCOC(=O)c1c(NC(=O)CC2S/C(=N/C)NC2=O)sc(C)c1C (stereo unspecified) | 1.2 |  |
| N=C1NC(=O)C(CC(=O)Nc2cccc(Cl)c2Cl)S1 (stereo unspecified) |  | fold change (FC) [2]: 1 |
| CCOC(=O)c1c(NC(=O)CC2SC(=N)NC2=O)sc(C)c1C (stereo unspecified) | 2.3 | Activity (Mus musculus [7]): Active; Activity (Mus musculus [8]): Active |
| CCOC(=O)c1c(NC(=O)CC2SC(=N)NC2=O)sc(Br)c1CNc1ccccc1 (stereo unspecified) | 2.5 |  |
| CCOC(=O)c1c(NC(=O)CC2SC(=O)NC2=O)sc2c1CCCC2 (stereo unspecified) | 1 |  |
| CCOC(=O)c1c(C)csc1NC(=O)CC1SC(=N)NC1=O (stereo unspecified) | 2 |  |
| CCOC(=O)c1cc(CC)sc1NC(=O)CC1SC(=N)NC1=O (stereo unspecified) | 1.7 |  |
